In US11325892B2, “Compounds and methods for treating cancer” (Mayo Foundation for Medical Education and Research, priority 2014, dated 2022):

Columns and labels:
[1] = tested on: A498, ACHN, and Caki1 cell lines; experiment: Oleic acid (OA) rescue assay of cell proliferation in ccRCC cells; assay type: cell-based; details: EC50 dose of compound with OA (5 μg/μL); all three cell lines
Description: (§1) Cells were seeded at 5,000 cells/well in clear-bottom 96-well plates in triplicate in Maintenance Media. Drug treatment was applied at a concentration of 1:1000 in reduced serum (3%) Maintenance Media. After 72 hours, cells were washed with PBS, and stored at −80° C. prior to analysis using CyQuant® Proliferation Analysis Kit (Invitrogen) as per manufacturers' protocol for relative fluorescence units. Alternatively, cells were plated 2×10^5/well in 12-well plates (Midwest Scientific) in triplicate prior to drug treatment. After 120 hour treatment, cell number was established using a Coulter Particle Counter (Beckman). Or, cells were plated (0.5 or 1×10^5/well) in 24-well plates (Midwest Scientific), 3×. After 72 hour treatment, cell number established using Coulter Particle Counter (Beckman). Oleic acid-albumin (Sigma Aldrich) was added to media at 5 μM, and was applied adjuvant to drug treatment. Drug stocks were prepared in DMSO (Sigma) at 1000×. EC50 dosing per cell line was calculated using CalcuSyn® analytical software.
A498, ACHN, and Caki1 cell lines were treated with the EC50 dose of each MF-438, ChemBL375265, SSI-1, SSI-4, SSI-3, and SSI-2 with or without concomitant application of OA (5 μg/μL). […] Representative images of A498 cell morphology and density treated with each compound +/−OA are shown in (FIG. 2B).

[2] = tested on: ATF6-UPRE luciferase reporter in A498 and ACHN cells; experiment: ATF6-UPRE luciferase reporter assay; assay type: cell-based; details: EC50 dose
Description: A498 and ACHN cells were transiently transfected with p5×ATF6-GL3 UPR luciferase reporter (Addgene plasmid#11976) and pRL-CMV-renilla (Promega) using Lipofectamine 2000 (Invitrogen). Cells were treated as indicated for 24H, prior to collection and analysis using Promega Dual Luciferase assay kit per manufacturer's specifications. Luciferase activity was measured using Veritas Luminometer (Promega); and results are reported as relative luminescence.
(§2) Activating transcription factor 6 (ATF6) is a key regulator of the unfolded protein response (UPR) that recognizes unfolded protein response elements (UPRE) in the promoter regions of several key mediators of the ER stress response, initiating their transcription (Wang Y, Shen J, Arenzana N, Tirasophon W, Kaufman R J, Prywes R. Activation of ATF6 and an ATF6 DNA binding site by the endoplasmic reticulum stress response. J Biol Chem. Sep. 1, 2000; 275(35):27013-27020). A498 and ACHN transfected with an ATF6-UPRE luciferase reporter were treated with the EC50 doses of ChemBL375265, SSI-1, SSI-4, SSI-3, and SSI-2 with or without OA supplementation were evaluated in order to determine whether the identified compounds could recapitulate activation of the UPR. […] Upregulation of the UPR markers BiP (heat shock 70 kDa protein, GRP78) and CHOP (damage inducible transcript 3, DDIT3) was evaluated by Western blot in A498 and ACHN cells treated with the EC50 doses of ChemBL375265, SSI-1, SSI-4, SSI-3, and SSI-2 with or without OA supplementation.

[3] = tested on: BiP and CHOP expression in A498 and ACHN cells; experiment: Western blot for UPR markers BiP and CHOP; assay type: cell-based; details: EC50 dose; both cell lines; blocked with concomitant OA treatment
Description: (§3) Protein extraction and western blot analysis was performed as previously described (Copland J A, Marlow L A, Kurakata S, et al. Novel high-affinity PPARgamma agonist alone and in combination with paclitaxel inhibits human anaplastic thyroid carcinoma tumor growth via p21WAF1/CIP1. Oncogene. Apr 13 2006; 25(16):2304-2317). Primary antibodies included SCD1 (Sigma-Aldrich, #HPA012107), BiP (Cell Signaling, #3183), CHOP (Cell Signaling, #2895), sXBP1(Santa Cruz Biotechnology, #sc-7160), PARP(Cell Signaling, #9542), and β-actin (Sigma-Aldrich, #A5441).
as §2

[4] = biological target: T1, SCD1 (Homo sapiens, UniProt O00767); details: known inhibitors; cited from earlier work
T1 sequence (O00767 1-359): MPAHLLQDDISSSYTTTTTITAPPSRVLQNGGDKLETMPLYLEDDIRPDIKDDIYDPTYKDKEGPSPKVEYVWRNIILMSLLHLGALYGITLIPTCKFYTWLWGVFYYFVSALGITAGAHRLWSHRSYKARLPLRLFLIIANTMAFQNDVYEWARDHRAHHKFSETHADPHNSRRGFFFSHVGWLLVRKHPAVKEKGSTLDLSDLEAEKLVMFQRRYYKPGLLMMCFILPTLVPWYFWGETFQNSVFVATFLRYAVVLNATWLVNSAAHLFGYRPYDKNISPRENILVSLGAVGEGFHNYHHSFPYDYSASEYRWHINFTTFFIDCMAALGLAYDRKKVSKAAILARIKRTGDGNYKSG

[5] = tested on: HK2, a transformed renal epithelial cell line; experiment: High-throughput proliferative screen, non-cancerous cells; assay type: cell-based
Description: as §1
In order to identify potential SCD1 inhibitors, a high-throughput proliferative-based screening method was used, with four ccRCC cell lines including A498, ACHN, Caki1, and Caki2. The SCD1 inhibitor MF-438 was included as a positive control. Known compounds ChemBL375265 (Liu G, Lynch J K, Freeman J, et al. Discovery of potent, selective, orally bioavailable stearoyl-CoA desaturase 1 inhibitors. Journal of medicinal chemistry. Jun. 28, 2007; 50(13): 3086-3100) (SetA.100) and SAR707 (Voss M D, Zoller G, Matter H, et al. Discovery and pharmacological characterization of SAR707 as novel and selective small molecule inhibitor of stearoyl-CoA desaturase (SCD1). European journal of pharmacology. May 5, 2013; 707(1-3): 140-146) (TC03.100) were included as single-blinded positive controls, and are indicated with an asterisk (*). […]

[6] = tested on: kidney cancer cells; experiment: Combination with mTor inhibitor temsirolimus, cell proliferation; assay type: cell-based; details: different concentrations with 0, 0.1, 1, and 10 nM temsirolimus
[7] = tested on: ATC cells; experiment: Proliferative dose response of thyroid cells; assay type: cell-based; details: THJ29T, THJ16T, and KTC2; 72H
Description: as §1
The efficacy of pharmacologic inhibition of this enzyme on tumor cell proliferation after a 72H treatment was determined, using A939572-a commercially available small molecule SCD1 inhibitor (Xin Z, Zhao H, Serby M D, Liu B, Liu M, Szczepankiewicz B G, Nelson L T, Smith H T, Suhar T S, Janis R S, Cao N, Camp H S, Collins C A, Sham H L, Surowy T K, Liu G. Discovery of piperidine-aryl urea-based stearoyl-CoA desaturase 1 inhibitors. Bioorg Med Chem Lett. 2008; 18(15):4298-302). […] Despite conspicuous SCD1 expression in 4 of the 5 FTC cells tested, no response to A939572 was observed (FIG. 10D).
THJ29T, THJ16T, and KTC2 were treated with carfilzomib (FIG. 12A) or bortezomib for 72H in order to establish EC50 values. […] Anti-proliferative drug synergy was evaluated in THJ29T and THJ16T treated with either A939572 or MF-438 in combination with either bortezomib or carfilzomib for 48H. Synergy was assessed using CalcuSyn analytical software, which determines the combination index (CI) based on the Chou-Talalay method where CI values >1 represent an antagonistic effect and values <1 represent synergy, and lower values signify enhanced synergy (Chou T C, Talalay P. Analysis of Combined Drug Effects—a New Look at a Very Old Problem. Trends in Pharmacological Sciences. 1983; 4(11):450-4).

[8] = tested on: PARP cleavage and CHOP expression in THJ29T and THJ16T; experiment: Western blot for PARP cleavage and CHOP expression, combinatorial therapy; assay type: cell-based; details: EC50 doses, 48H
Description: as §3
THJ29T and THJ16T treated for 48H with EC50 doses of either A939572 or MF-438 in combination with either carfilzomib or bortezomib were probed for PARP cleavage and CHOP expression, both markers indicative of apoptosis (FIGS. 14A-B, 15A-B). […] Cell death was additionally examined via flow cytometry using propidium iodide staining. THJ29T and THJ16T were treated for 48H with EC50 doses of either A939572 or MF-438 in combination with either carfilzomib or bortezomib prior to staining and analysis.

[9] = tested on: THJ16T ATC cell xenograft; experiment: THJ16T xenograft model; assay type: in vivo, female athymic nu/nu mice
Description: Formalin-fixed, paraffin-embedded subject tissues were mounted on slides, blocked with Diluent (DakoCytomation) for 30 min, and then probed for SCD (Sigma-Aldrich, #HPA012107). IHC scoring was performed as previously described (von Roemeling C A, Marlow L A, Wei J J, et al. Stearoyl-CoA desaturase 1 is a novel molecular therapeutic target for clear cell renal cell carcinoma. Clin Cancer Res. May 1 2013; 19(9):2368-2380). Cases where insufficient tumor tissue presented were excluded. 20× images were obtained using Scanscope XT and Imagescope software.
1×10^6 THJ16T ATC cells were subcutaneously injected in female athymic nu/nu mice (Harlan Laboratories). Treatment was initiated once tumor volumes reached 50-100 mm^3. MF-438 was suspended in 0.5% carboxymethyl-cellulose containing strawberry drink flavoring(0.1 g/mL) in sterilized H2O at 25 mg/kg in a 100 μl dose, and administered via oral gavage once daily. Carfilzomib was solubilized in DMSO (4% of FC), suspended in 100% corn oil at 4 mg/kg per 50 uL dose and administered via intraperitoneal injection twice weekly on consecutive days. Tumor volume(0.5236[L*W*H]) and body weight were measured 2×/week. N=10 mice/group.
MF-438 was tested in combination with carfilzomib in vivo in a THJ16T xenograft model. […] J Clin Endocrinol Metab. 2010; 95(12):5338-47). […] Saline was administered as necessary. These adverse events resolved 24-48 hours after the second administration of carfilzomib. […] However, no other significant adverse events were observed. […] IHC analysis of tumors resected from each treatment group was performed.

[10] = 24H, both cell lines A498 and ACHN, completely blocked with OA

Row | SMILES | rescue of cell proliferation with OA [1] | luciferase activity [2, 10] | BiP and CHOP expression [3] | EC50 [7] | also measured
1 | CNC(=O)c1ccc(N2CCC(Oc3ccccc3Cl)CC2)nn1 [ChemBL375265] | Near total rescue of cell proliferation | significant upregulation of luciferase activity | strongly induced both BiP and CHOP expression |  | IC50 [4]: 400 nM
2 | CNC(=O)c1ccccc1OCC(=O)N1CCN(C(=O)c2ccccc2C(F)(F)F)CC1 [SSI-1, N-Methyl-2-(2-oxo-2-{4-[2-(trifluoromethyl)benzoyl]piperazin-1-yl}ethoxy)benzamide] | Near total rescue of cell proliferation | significant upregulation of luciferase activity | strongly induced both BiP and CHOP expression |  | 
3 | O=C(Nc1ccc(OCc2ccccc2)nc1)N1CCN(C(=O)c2ccccc2C(F)(F)F)CC1 [SSI-2, 2-(benzyloxy)-5-{[hydroxy({4-[2-(trifluoromethyl)benzoyl]piperazin-1-yl})methyl]amino}-1,2-dihydropyridin-2-ylium-1-ide] | Near total rescue of cell proliferation | significant upregulation of luciferase activity | strongly induced both BiP and CHOP expression |  | reduction in cell proliferation [5]: approximately 20%; kidney cancer cell proliferation [6]: reduced kidney cancer cell proliferation
4 | O=C(NCc1ccnc(OCc2ccccc2)c1)N1CCN(C(=O)c2ccccc2C(F)(F)F)CC1 [SSI-3] | Near total rescue of cell proliferation |  | strongly induced both BiP and CHOP expression |  | luciferase activity ([2]; ACHN cells): induced reversible luciferase activity
5 | CC(C)C[C@H](NC(=O)[C@H](Cc1ccccc1)NC(=O)c1cnccn1)B(O)O [bortezomib] |  |  |  | low nanomolar dose range | 
6 | CC(C)C[C@H](NC(=O)[C@H](CCc1ccccc1)NC(=O)CN1CCOCC1)C(=O)N[C@@H](Cc1ccccc1)C(=O)N[C@@H](CC(C)C)C(=O)[C@@]1(C)CO1 [carfilzomib] |  |  |  | low nanomolar dose range | PARP cleavage as compared to DMSO control [8]: significant PARP cleavage; reduction in mean tumor burden as compared to the placebo control ([9]; MF-438 25 mg/kg oral once daily, carfilzomib 4 mg/kg i.p. twice weekly): 21%; tumor response / mean tumor volume course ([9]; THJ16T xenograft): temporarily plateau; adverse events ([9]; mice bearing THJ16T xenograft): Dehydration and acute inflammation; survivin expression (IHC) ([9]; mouse, in vivo): induced survivin expression; CD31 (IHC), tumor vascularization ([9]; versus placebo control): trend toward decreased CD31; ki67 staining (IHC of resected tumors) ([9]; versus placebo control): trend of decreased ki67 staining; cleaved caspase-3 (IHC) ([9]; versus placebo control, only the combination group achieved statistical significance): increased cleaved caspase-3; HERPUD1 (IHC), marker for ER stress ([9]; versus placebo control, statistically significant combinatorial values): Increased HERPUD1
